According to patent publication US8314112B2 (Novartis AG, priority 2008, dated 2012):

These molecules were tested against T1, human ALK5 (kinase domain, ALK5 T204D) (Homo sapiens, UniProt P36897, T204D) (assay: ALK5 kinase assay ([33P] phosphate incorporation into casein)). Conditions: casein substrate, 1 μM unlabelled ATP.
T1 construct: The kinase domain of human ALK5 (amino acids 200-503); made in house; host or cells: insect cells (baculovirus)
T1 sequence (P36897 200-503 T204D): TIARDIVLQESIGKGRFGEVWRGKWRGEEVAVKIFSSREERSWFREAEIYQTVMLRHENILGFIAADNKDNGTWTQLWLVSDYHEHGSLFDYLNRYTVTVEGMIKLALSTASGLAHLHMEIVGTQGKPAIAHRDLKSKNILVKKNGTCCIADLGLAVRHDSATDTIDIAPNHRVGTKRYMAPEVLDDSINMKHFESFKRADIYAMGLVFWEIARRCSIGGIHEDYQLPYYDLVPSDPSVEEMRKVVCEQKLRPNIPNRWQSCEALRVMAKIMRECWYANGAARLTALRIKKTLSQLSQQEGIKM
Type: biochemical
Description: The kinase activity of ALK5 is assessed by measuring radiolabelled phosphate [33P] incorporation in to the generic substrate, casein. The kinase domain of human ALK5 (amino acids 200-503) is fused to an N-terminal histidine tag. The kinase activity of ALK5 is rendered constitutive via point mutation at amino acid 204 (threonine to aspartate modification, ALK5 T204D) and the kinase construct is engineered to be expressed from a baculovirus expression construct in insect cells. The purified, recombinantly-expressed histidine-tagged ALK5 T204D protein is dissolved at 5.4 mg/ml in 50 mM Tris-HCl pH 8.0, 150 mM NaCl, 5 mM DTT. ALK5 T204D is dissolved to 2.5 μg/ml in assay buffer (Assay buffer: 20 mM Tris-HCl pH 7.4, 10 mM MgCl2, 2 mM MnCl2) on the day of use.
Test compounds and reference compounds are dissolved in assay buffer without DTT containing 5% (v/v) DMSO. Stock solutions of test and reference compounds are diluted in assay buffer with DTT (1.25 mM) containing 4.5% (v/v) DMSO. 10 μl of test or reference compound are added to the appropriate wells of 96 well U-bottomed plate. Total enzyme activity is determined by measuring ALK5 T204D activity in the absence of ALK5 kinase inhibitor reference compounds. Non-specific binding (NSB) is determined by measuring the activity of ALK5 T204D in the presence of ALK5 kinase inhibitor reference compounds. 10 μl of dephosphorylated casein stock solution (dephosphorylated casein is dissolved in ddH2O at 20 mg/ml) is added per well (200 μg/well final assay concentration). 20 μl of ALK5 T204D (2.5 μg/ml solution) is added per well (50 ng/well final assay concentration). The plates are left to incubate at room temperature for 10 minutes.
10 μl of ATP mix is added to the well to initiate the reaction (0.66 nM [^33P]ATP/1 μM unlabelled ATP/well final assay concentration). The ATP mix is prepared as follows, unlabelled ATP (3 mM) is dissolved in ddH2O and pH adjusted to 7.4. The stock concentration of [^33P]ATP is 10 μCi/μl. The appropriate volume of [^33P]ATP is added to unlabelled ATP solution such that the final assay concentration per well is 0.1 μCi. Following addition of the ATP mix, the plates are incubated at room temperature for 50 minutes. The kinase reaction is terminated by the addition of 50 μL Stop Buffer (20 mM Tris-HCl pH 7.4, 10 mM EDTA).
75 μl/well from the reaction plate is transferred to a Multiscreen-IP plate (MultiScreen-IP plates are prepared by added 50 μL of 70% (v/v) ethanol per well and incubated for 5 minutes at room temperature. The ethanol is removed by aspiration via a MultiScreen HTS Vaccum Manifold unit (Millipore, Cat no: MSVMHT500). The plates are washed twice by adding 200 μl/well ddH2O). The MultiScreen-IP plate is incubated at room temperature for 30 minutes to allowing binding of casein to the plate. The MultiScreen-IP plates are washed three times by adding 200 μl/well 100 mM phosphoric acid solution and the gasket is carefully removed from the back of the MultiScreen-IP plate and the plate dried in the oven for 30 minutes. The MultiScreen-IP plate is backsealed, 50 μL of Microscint™20 is added, then the plates are topsealed and radiolabelled casein detected and quantified on a TopCount™ plate-reader using the ^33P scintillation protocol.
With `Cc1cccc(-c2nc(-c3cncc(NC(=O)CCCN(C)C)c3)c3cc[nH]c3n2)n1` [Example 30, 4-Dimethylamino-N-{5-[2-(6-methyl-pyridin-2-yl)-7H-pyrrolo[2,3-d]pyrimidin-4-yl]-pyridin-3-yl}-butyramide] the IC50 was 64 nM.
`Cc1cccc(-c2nc(-c3cncc(NC(=O)CCN(C)C)c3)c3cc[nH]c3n2)n1` [Example 31, 3-Dimethylamino-N-{5-[2-(6-methyl-pyridin-2-yl)-7H-pyrrolo[2,3-d]pyrimidin-4-yl]-pyridin-3-yl}-propionamide] was tested, and the IC50 was 85 nM.
`Cc1cccc(-c2nc(-c3cncc(-c4ccccc4C)c3)c3cc[nH]c3n2)n1` [Example 32, 2-(6-Methyl-pyridin-2-yl)-4-(5-o-tolyl-pyridin-3-yl)-7H-pyrrolo[2,3-d]pyrimidine] showed an IC50 of 762 nM.
In the case of `Cc1cccc(-c2nc(-c3cncc(-c4ccccc4Cl)c3)c3cc[nH]c3n2)n1` [Example 33, 4-[5-(2-Chloro-phenyl)-pyridin-3-yl]-2-(6-methyl-pyridin-2-yl)-7H-pyrrolo[2,3-d]pyrimidine], the IC50 is reported as 90 nM.
Molecule `Cc1cccc(-c2nc(-c3cncc(-c4cccc(CN5CCN(C(C)C)CC5)c4)c3)c3cc[nH]c3n2)n1` [Example 34, 4-{5-[3-(4-Isopropyl-piperazin-1-ylmethyl)-phenyl]-pyridin-3-yl}-2-(6-methyl-pyridin-2-yl)-7H-pyrrolo[2,3-d]pyrimidine] has an IC50 of 51 nM.
`Cc1cccc(-c2nc(-c3cncc(-c4ccc(CN5CCN(C(C)C)CC5)cc4)c3)c3cc[nH]c3n2)n1` [Example 35, 4-{5-[4-(4-Isopropyl-piperazin-1-ylmethyl)-phenyl]-pyridin-3-yl}-2-(6-methyl-pyridin-2-yl)-7H-pyrrolo[2,3-d]pyrimidine] gave an IC50 of 44 nM.
`CNCc1cccc(-c2cncc(-c3nc(-c4cccc(C)n4)nc4[nH]ccc34)c2)c1` [Example 36, Methyl-(3-{5-[2-(6-methyl-pyridin-2-yl)-7H-pyrrolo[2,3-d]pyrimidin-4-yl]-pyridin-3-yl}-benzyl)-amine] was tested, and the IC50 was 8 nM.
Molecule `Cc1cccc(-c2nc(-c3cncc(-c4cccc(CN(C)C)c4)c3)c3cc[nH]c3n2)n1` [Example 37, Dimethyl-(3-{5-[2-(6-methyl-pyridin-2-yl)-7H-pyrrolo[2,3-d]pyrimidin-4-yl]-pyridin-3-yl}-benzyl)-amine] has an IC50 of 33 nM.
For `Cc1cccc(-c2nc(-c3cncc(-c4ccc(CN(C)C)cc4)c3)c3cc[nH]c3n2)n1` [Example 38, Dimethyl-(4-{5-[2-(6-methyl-pyridin-2-yl)-7H-pyrrolo[2,3-d]pyrimidin-4-yl]-pyridin-3-yl}-benzyl)-amine], the IC50 was 12 nM.
Molecule `CNCc1ccc(-c2cncc(-c3nc(-c4cccc(C)n4)nc4[nH]ccc34)c2)cc1` [Example 39, Methyl-(4-{5-[2-(6-methyl-pyridin-2-yl)-7H-pyrrolo[2,3-d]pyrimidin-4-yl]-pyridin-3-yl}-benzyl)-amine] has an IC50 of 6 nM.
For `Cc1cccc(-c2nc(-c3cncc(-c4ccc(C(=O)N5CCNCC5)cc4)c3)c3cc[nH]c3n2)n1` [Example 40, (4-{5-[2-(6-Methyl-pyridin-2-yl)-7H-pyrrolo[2,3-d]pyrimidin-4-yl]-pyridin-3-yl}-phenyl)-piperazin-1-yl-methanone], the IC50 was 3 nM.
`Cc1cccc(-c2nc(-c3cncc(N4CCN(C)CC4)c3)c3cc[nH]c3n2)n1` [Example 41, 4-[5-(4-Methyl-piperazin-1-yl)-pyridin-3-yl]-2-(6-methyl-pyridin-2-yl)-7H-pyrrolo[2,3-d]pyrimidine] was tested, and the IC50 was 130 nM.
`CN1CCN(C(=O)c2ccc(-c3cncc(-c4nc(-c5ccccn5)nc5[nH]ccc45)c3)cc2)CC1` [Example 42, (4-Methyl-piperazin-1-yl)-{4-[5-(2-pyridin-2-yl-7H-pyrrolo[2,3-d]pyrimidin-4-yl)-pyridin-3-yl]-phenyl}-methanone] was tested, and the IC50 was 17 nM.
Work on `CN1CCN(Cc2ccc(-c3cncc(-c4nc(-c5ccccn5)nc5[nH]ccc45)c3)cc2)CC1` [Example 43, 4-{5-[4-(4-Methyl-piperazin-1-ylmethyl)-phenyl]-pyridin-3-yl}-2-pyridin-2-yl-7H-pyrrolo[2,3-d]pyrimidine] yielded an IC50 of 6 nM.
With `Brc1cncc(-c2nc(-c3ccccn3)nc3[nH]ccc23)c1` [Example 44, 4-(5-Bromo-pyridin-3-yl)-2-pyridin-2-yl-7H-pyrrolo[2,3-d]pyrimidine] the IC50 was 424 nM.
Work on `CN1CCN(Cc2cccc(-c3cncc(-c4nc(-c5ccccn5)nc5[nH]ccc45)c3)c2)CC1` [Example 45, 4-{5-[3-(4-Methyl-piperazin-1-ylmethyl)-phenyl]-pyridin-3-yl}-2-pyridin-2-yl-7H-pyrrolo[2,3-d]pyrimidine] yielded an IC50 of 19 nM.
With `Cc1cccc(-c2cc(-c3cccnc3)c3cc[nH]c3n2)n1` [Example 46, 6-(6-methyl-pyridin-2-yl)-4-pyridin-3-yl-1H-pyrrolo[2,3-b]pyridine] the IC50 was 264 nM.
`COc1cncc(-c2cc(-c3cccc(C)n3)nc3[nH]ccc23)c1` [Example 47, 4-(5-Methoxy-pyridin-3-yl)-6-(6-methyl-pyridin-2-yl)-1H-pyrrolo[2,3-b]pyridine] gave an IC50 of 28 nM.
For `Cc1cccc(-c2nc(-c3cncc(N4CCCCC4)c3)c3cc[nH]c3n2)n1` [Example 48, 5′-[2-(6-Methyl-pyridin-2-yl)-7H-pyrrolo[2,3-d]pyrimidin-4-yl]-3,4,5,6-tetrahydro-2H-[1,3′]bipyridinyl], the IC50 was 1340 nM.
Work on `Cc1cccc(-c2nc(-c3cncc(N4CCC(O)CC4)c3)c3cc[nH]c3n2)n1` [Example 49, 5′-[2-(6-Methyl-pyridin-2-yl)-7H-pyrrolo[2,3-d]pyrimidin-4-yl]-3,4,5,6-tetrahydro-2H-[1,3′]bipyridinyl-4-ol] yielded an IC50 of 1080 nM.
For `Cc1cccc(-c2nc(-c3cncc(NC(=O)CCN)c3)c3cc[nH]c3n2)n1` [Example 50, 3-amino-N-{5-[2-(6-methyl-pyridin-2-yl)-7H-pyrrolo[2,3-d]pyrimidin-4-yl]-pyridin-3-yl}-propionamide], the IC50 was 149 nM.
`Cc1cccc(-c2nc(-c3cncc(N4CCOCC4)c3)c3cc[nH]c3n2)n1` [Example 51, 2-(6-Methyl-pyridin-2-yl)-4-(5-morpholin-4-yl-pyridin-3-yl)-7H-pyrrolo[2,3-d]pyrimidine] was tested, and the IC50 was 660 nM.
Work on `CC(=O)NCCCC(=O)Nc1cncc(-c2nc(-c3cccc(C)n3)nc3[nH]ccc23)c1` [Example 52, 4-Acetylamino-N-{5-[2-(6-methyl-pyridin-2-yl)-7H-pyrrolo[2,3-d]pyrimidin-4-yl]-pyridin-3-yl}-butyramide] yielded an IC50 of 435 nM.
Molecule `CC(=O)NCCC(=O)Nc1cncc(-c2nc(-c3cccc(C)n3)nc3[nH]ccc23)c1` [Example 53, 3-Acetylamino-N-{5-[2-(6-methyl-pyridin-2-yl)-7H-pyrrolo[2,3-d]pyrimidin-4-yl]-pyridin-3-yl}-propionamide] has an IC50 of 570 nM.
Work on `Cc1cccc(-c2nc(-c3cncc(NC(=O)CCO)c3)c3cc[nH]c3n2)n1` [Example 54, 3-Hydroxy-N-{5-[2-(6-methyl-pyridin-2-yl)-7H-pyrrolo[2,3-d]pyrimidin-4-yl]-pyridin-3-yl}-propionamide] yielded an IC50 of 119 nM.
For `Cc1cccc(-c2nc(-c3cnccc3C)c3cc[nH]c3n2)n1` [Example 55, 4-(4-Methyl-pyridin-3-yl)-2-(6-methyl-pyridin-2-yl)-7H-pyrrolo[2,3-d]pyrimidine], the IC50 was 813 nM.
